Laboratory results taken from patent US8129417B2, “Substituted octahydrocyclopenta[C]pyrrol-4-amines as calcium channel blockers” (Abbott Laboratories, priority 2008, dated 2012).
pIC50: −log10 of the molar value.

Target: human Cav2.2 (Homo sapiens, UniProt Q00975)
Assay: Assessment of calcium channel activity using FLIPR (Ca2+ influx in IMR32 cells)
Assay type: cell-based
Conditions: for inhibition at 10 µM: IMR-32, @ 10 μM, 3 minute pre-incubation (*), read-out: percent inhibition; for pIC50: 2 μM nifedipine, depolarized with 80 mM KCl
Procedure, shortened: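 IC50 came from sigmoidal non-linear regression of percent inhibition, relative to uninhibited activity, across compound concentrations. Calcium influx was measured by FLIPR in IMR32 cells plated at 1-1.2×10^5 cells/well and cultured 48 h at 37 °C.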

[1] = 60 minute pre-incubation with compound
[2] = 3 minute pre-incubation with compound (*)

Chain of human Cav2.2 (Q00975 whole entry): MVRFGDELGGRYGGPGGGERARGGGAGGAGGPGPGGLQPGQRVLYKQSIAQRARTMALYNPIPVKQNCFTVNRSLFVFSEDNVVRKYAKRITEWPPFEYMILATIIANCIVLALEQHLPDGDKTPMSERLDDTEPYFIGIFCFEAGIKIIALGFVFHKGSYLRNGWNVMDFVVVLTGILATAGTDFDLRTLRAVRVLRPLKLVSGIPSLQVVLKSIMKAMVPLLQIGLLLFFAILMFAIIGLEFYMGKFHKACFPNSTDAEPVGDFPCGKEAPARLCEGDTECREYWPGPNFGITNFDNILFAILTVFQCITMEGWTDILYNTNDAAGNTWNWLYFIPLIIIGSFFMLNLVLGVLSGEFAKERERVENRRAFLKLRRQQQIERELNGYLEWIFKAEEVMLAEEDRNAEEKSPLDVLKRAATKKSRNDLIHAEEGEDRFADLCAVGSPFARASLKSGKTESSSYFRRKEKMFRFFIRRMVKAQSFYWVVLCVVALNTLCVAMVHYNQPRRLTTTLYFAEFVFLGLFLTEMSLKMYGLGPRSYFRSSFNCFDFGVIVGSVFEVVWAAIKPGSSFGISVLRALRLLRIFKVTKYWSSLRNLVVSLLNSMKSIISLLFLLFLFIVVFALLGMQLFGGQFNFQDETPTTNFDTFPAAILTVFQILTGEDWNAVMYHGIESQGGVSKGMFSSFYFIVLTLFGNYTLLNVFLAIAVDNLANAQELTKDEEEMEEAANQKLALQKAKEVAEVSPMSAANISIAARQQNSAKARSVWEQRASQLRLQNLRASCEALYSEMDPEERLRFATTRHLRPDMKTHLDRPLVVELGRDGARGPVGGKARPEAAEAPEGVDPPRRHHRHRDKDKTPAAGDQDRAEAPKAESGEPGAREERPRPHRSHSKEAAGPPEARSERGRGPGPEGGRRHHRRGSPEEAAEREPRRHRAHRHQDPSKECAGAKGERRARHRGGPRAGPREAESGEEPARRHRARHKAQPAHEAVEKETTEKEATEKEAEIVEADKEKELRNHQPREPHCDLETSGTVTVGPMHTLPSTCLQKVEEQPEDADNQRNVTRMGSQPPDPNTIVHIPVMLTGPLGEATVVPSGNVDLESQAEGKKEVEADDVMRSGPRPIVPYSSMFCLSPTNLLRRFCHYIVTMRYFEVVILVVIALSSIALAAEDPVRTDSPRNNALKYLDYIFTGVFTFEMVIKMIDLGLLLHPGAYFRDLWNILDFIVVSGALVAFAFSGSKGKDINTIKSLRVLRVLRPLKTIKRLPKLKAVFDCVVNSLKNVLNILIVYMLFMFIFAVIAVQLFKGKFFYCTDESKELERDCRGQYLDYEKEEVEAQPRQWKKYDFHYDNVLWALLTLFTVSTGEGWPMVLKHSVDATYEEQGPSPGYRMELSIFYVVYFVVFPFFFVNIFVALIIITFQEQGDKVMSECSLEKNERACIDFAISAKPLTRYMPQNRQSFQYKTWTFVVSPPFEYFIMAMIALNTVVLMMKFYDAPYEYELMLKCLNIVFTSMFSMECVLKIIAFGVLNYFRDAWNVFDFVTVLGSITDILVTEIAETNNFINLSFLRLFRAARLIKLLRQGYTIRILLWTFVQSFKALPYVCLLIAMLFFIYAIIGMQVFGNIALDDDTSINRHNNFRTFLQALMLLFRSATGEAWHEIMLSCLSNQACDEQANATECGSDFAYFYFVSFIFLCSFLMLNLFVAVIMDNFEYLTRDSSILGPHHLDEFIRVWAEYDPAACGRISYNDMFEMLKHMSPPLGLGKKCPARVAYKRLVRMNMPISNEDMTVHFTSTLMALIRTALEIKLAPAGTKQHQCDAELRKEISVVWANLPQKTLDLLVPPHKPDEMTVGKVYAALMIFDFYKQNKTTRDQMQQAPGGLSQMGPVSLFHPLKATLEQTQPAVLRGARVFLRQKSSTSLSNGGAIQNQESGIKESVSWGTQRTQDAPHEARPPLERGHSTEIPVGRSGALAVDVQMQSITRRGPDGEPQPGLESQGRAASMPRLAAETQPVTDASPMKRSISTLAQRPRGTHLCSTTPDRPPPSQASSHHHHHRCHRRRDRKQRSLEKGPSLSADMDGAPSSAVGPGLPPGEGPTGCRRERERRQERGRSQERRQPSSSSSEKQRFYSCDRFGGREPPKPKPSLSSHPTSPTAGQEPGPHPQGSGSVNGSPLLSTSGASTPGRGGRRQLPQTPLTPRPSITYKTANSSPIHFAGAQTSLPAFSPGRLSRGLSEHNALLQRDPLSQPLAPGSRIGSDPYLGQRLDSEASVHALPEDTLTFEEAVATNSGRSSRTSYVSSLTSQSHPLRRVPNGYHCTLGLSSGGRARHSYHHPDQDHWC
Chain of human Cav2.2 (P54289 25-946 partner limits assumed): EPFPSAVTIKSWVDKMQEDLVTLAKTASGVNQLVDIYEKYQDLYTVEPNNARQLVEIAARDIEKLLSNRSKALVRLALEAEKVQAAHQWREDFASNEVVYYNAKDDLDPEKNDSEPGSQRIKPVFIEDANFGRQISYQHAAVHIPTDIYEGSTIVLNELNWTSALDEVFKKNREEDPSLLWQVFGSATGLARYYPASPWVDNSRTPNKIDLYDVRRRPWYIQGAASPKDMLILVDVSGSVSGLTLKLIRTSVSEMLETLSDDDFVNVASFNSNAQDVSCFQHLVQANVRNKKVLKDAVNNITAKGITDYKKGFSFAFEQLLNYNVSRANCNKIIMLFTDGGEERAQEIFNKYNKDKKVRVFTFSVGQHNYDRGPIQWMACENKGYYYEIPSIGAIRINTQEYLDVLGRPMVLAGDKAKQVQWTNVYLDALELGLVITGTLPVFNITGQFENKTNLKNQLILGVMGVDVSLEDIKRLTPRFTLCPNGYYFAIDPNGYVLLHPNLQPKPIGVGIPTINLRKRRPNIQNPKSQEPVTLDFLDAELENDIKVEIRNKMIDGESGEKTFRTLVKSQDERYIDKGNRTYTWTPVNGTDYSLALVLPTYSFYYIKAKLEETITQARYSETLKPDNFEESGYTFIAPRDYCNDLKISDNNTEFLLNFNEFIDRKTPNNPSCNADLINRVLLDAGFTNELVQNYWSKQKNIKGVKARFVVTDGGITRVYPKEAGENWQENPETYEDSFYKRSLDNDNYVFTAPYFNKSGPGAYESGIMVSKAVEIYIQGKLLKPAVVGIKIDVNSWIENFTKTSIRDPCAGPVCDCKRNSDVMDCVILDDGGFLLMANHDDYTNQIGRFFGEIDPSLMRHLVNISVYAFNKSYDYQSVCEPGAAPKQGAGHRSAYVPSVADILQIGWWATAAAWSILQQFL
Chain of human Cav2.2 (P54289 947-1103 partner limits assumed): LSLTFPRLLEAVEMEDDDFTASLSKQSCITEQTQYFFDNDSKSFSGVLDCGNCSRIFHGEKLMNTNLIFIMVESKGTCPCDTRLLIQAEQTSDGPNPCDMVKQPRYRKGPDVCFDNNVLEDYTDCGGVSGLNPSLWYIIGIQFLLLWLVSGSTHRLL
Chain of human Cav2.2 (P54284 whole entry partner): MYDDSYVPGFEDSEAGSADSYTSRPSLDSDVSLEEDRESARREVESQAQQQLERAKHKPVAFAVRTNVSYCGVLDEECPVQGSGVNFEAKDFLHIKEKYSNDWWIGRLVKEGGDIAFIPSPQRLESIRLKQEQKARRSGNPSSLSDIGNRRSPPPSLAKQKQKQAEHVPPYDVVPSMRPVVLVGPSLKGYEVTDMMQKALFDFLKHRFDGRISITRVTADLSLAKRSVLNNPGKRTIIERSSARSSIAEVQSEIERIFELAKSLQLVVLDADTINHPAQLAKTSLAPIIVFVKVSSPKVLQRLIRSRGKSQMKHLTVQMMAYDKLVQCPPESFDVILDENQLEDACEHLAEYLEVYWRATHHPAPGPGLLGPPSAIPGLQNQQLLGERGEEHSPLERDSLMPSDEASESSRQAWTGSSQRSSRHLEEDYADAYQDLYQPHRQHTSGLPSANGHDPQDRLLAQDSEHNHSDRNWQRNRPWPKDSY

pIC50 [1]	Structure (SMILES)	also measured
5.04	CN[C@H](C(=O)N[C@H]1CC[C@@H]2CN(S(=O)(=O)c3ccc(F)cc3)C[C@@H]21)C(C)C [Example 452, N^1-{(3aR,4S,6aS)-2-[(4-fluorophenyl)sulfonyl]octahydrocyclopenta[c]pyrrol-4-yl}-N^2-methyl-L-valinamide]	–
5.58	CC(C)CN[C@@H](CC(C)(C)C)C(=O)N[C@H]1CC[C@@H]2CN(S(=O)(=O)c3ccc(C(F)(F)F)cc3)C[C@@H]21 [Example 473, N^2-isobutyl-4-methyl-N^1-((3aR,4S,6aS)-2-{[4-(trifluoromethyl)phenyl]sulfonyl}octahydrocyclopenta[c]pyrrol-4-yl)-L-leucinamide]	–
5.11	CCCN[C@H]1CC[C@@H]2CN(S(=O)(=O)c3ccc(C(F)(F)F)cc3)C[C@@H]21 [Example 290, (3aR,4S,6aS)—N-propyl-2-{[4-(trifluoromethyl)phenyl]sulfonyl}octahydrocyclopenta[c]pyrrol-4-amine]	–
6.43	CC(C)(C)C[C@H](N)C(=O)N[C@H]1CC[C@@H]2CN(c3cccc(C(F)(F)F)n3)C[C@@H]21 [Example 441, 4-methyl-N^1-{(3aR,4S,6aS)-2-[6-(trifluoromethyl)pyridin-2-yl]octahydrocyclopenta[c]pyrrol-4-yl}-L-leucinamide]	–
6.02	CCC[C@@H](C(=O)N[C@H]1CC[C@@H]2CN(S(=O)(=O)c3ccc(F)c(Cl)c3)C[C@@H]21)N(C)C(=O)OC(C)(C)C [Example 529, Tert-butyl (S)-1-((3aR,4S,6aS)-2-(3-chloro-4-fluorophenylsulfonyl)octahydrocyclopenta[c]pyrrol-4-ylamino)-1-oxopentan-2-yl(methyl)carbamate]	–
6.09	CCN([C@@H](CC(C)C)C(=O)N[C@H]1CC[C@@H]2CN(Cc3cccc(C(F)(F)F)c3)C[C@@H]21)S(C)(=O)=O [Example 518, N^2-ethyl-N^2-(methylsulfonyl)-N^1-{(3aR,4S,6aS)-2-[3-(trifluoromethyl)benzyl]octahydrocyclopenta[c]pyrrol-4-yl}-L-leucinamide]	–
5.42	CC(C)C(C(=O)N[C@@H]1CC[C@H]2CN(Cc3cccc(C(F)(F)F)c3)C[C@H]21)C(C)C [Example 304, 2-isopropyl-3-methyl-N-{(3aS,4R,6aR)-2-[3-(trifluoromethyl)benzyl]octahydrocyclopenta[c]pyrrol-4-yl}butanamide]	–
5.69	CN[C@H](C(=O)N[C@@H]1CC[C@H]2CN(S(=O)(=O)c3ccc(C(F)(F)F)cc3)C[C@H]21)C(C)C [Example 402, N^2-methyl-N^1-((3aS,4R,6aR)-2-{[4-(trifluoromethyl)phenyl]sulfonyl}octahydrocyclopenta[c]pyrrol-4-yl)-L-valinamide]	–
5.67	CCN(C(=O)[C@H](CC(C)(C)C)N(C)C(=O)OC(C)(C)C)[C@H]1CC[C@@H]2CN(S(=O)(=O)c3ccc(C(F)(F)F)cc3)C[C@@H]21 [Example 296, tert-butyl(S)-1-(ethyl((3aR,4S,6aS)-2-(4-(trifluoromethyl)phenylsulfonyl)octahydrocyclopenta[c]pyrrol-4-yl)amino)-4,4-dimethyl-1-oxopentan-2-yl(methyl)carbamate]	–
5.52	CC(C)C[C@H](NS(C)(=O)=O)C(=O)N[C@H]1CC[C@@H]2CN(Cc3cccc(C(F)(F)F)c3)C[C@@H]21 [Example 516, N^2-(methylsulfonyl)-N^1-{(3aR,4S,6aS)-2-[3-(trifluoromethyl)benzyl]octahydrocyclopenta[c]pyrrol-4-yl}-L-leucinamide]	–
6.14	CC(C)(C)OC(=O)N1CCCC[C@H]1C(=O)N[C@@H]1CC[C@H]2CN(S(=O)(=O)c3cccc(C(F)(F)F)c3)C[C@H]21 [Example 268, tert-butyl(2S)-2-{[((3aS,4R,6aR)-2-{[3-(trifluoromethyl)phenyl]sulfonyl}octahydrocyclopenta[c]pyrrol-4-yl)amino]carbonyl}piperidine-1-carboxylate]	–

Continued, molecule first:

Structure (SMILES)	pIC50 [1]	also measured
CC(C)N(C(=O)N[C@H]1CC[C@@H]2CN(Cc3ccccc3)C[C@@H]21)c1ccccc1 [Example 219, N′-[(3aR,4S,6aS)-2-benzyloctahydrocyclopenta[c]pyrrol-4-yl]-N-isopropyl-N-phenylurea]	–	inhibition at 10 µM: 63%
O=S(=O)(c1cccc(C(F)(F)F)c1)N(C1CC1)[C@@H]1CC[C@H]2CN(Cc3ccccc3)C[C@H]21 (relative stereo) [Example 200, N-[(3aS*,4R*,6aR*)-2-benzyloctahydrocyclopenta[c]pyrrol-4-yl]-N-cyclopropyl-3-(trifluoromethyl)benzenesulfonamide]	6.00	–
CN[C@@H](CC(C)C)C(=O)N[C@@H]1CC[C@H]2CN(Cc3ccc(F)c(C(F)(F)F)c3)C[C@H]21 [Example 375, N^1-{(3aS,4R,6aR)-2-[4-fluoro-3-(trifluoromethyl)benzyl]octahydrocyclopenta[c]pyrrol-4-yl}-N^2-methyl-L-leucinamide]	5.09	–
O=C(N[C@H]1CC[C@H]2CN(Cc3cccc(OC(F)(F)F)c3)C[C@H]21)C(C1CCCCC1)C1CCCCC1 [Example 63, 2,2-dicyclohexyl-N-{(3aS,4S,6aR)-2-[3-(trifluoromethoxy)benzyl]octahydrocyclopenta[c]pyrrol-4-yl}acetamide]	6.22	–
CCCN(CCC)[C@H]1CC[C@@H]2CN(S(=O)(=O)c3ccc(C(F)(F)F)cc3)C[C@@H]21 [Example 291, (3aR,4S,6aS)—N,N-dipropyl-2-{[4-(trifluoromethyl)phenyl]sulfonyl}octahydrocyclopenta[c]pyrrol-4-amine]	5.36	–
CC(C)C[C@@H](C(=O)N[C@H]1CC[C@@H]2CN(Cc3ccccc3)C[C@@H]21)N(C)C(=O)OC(C)(C)C [Example 222, tert-butyl(S)-1-((3aR,4S,6aS)-2-benzyloctahydrocyclopenta[c]pyrrol-4-ylamino)-4-methyl-1-oxopentan-2-yl(methyl)carbamate]	5.69	–
CC(C)C(C(=O)N[C@H]1CC[C@@H]2CN(Cc3ccc(C(F)(F)F)cc3)C[C@@H]21)c1ccccc1 (stereo partly drawn) [Example 98, 3-methyl-2-phenyl-N-{(3aR,4S,6aS)-2-[4-(trifluoromethyl)benzyl]octahydrocyclopenta[c]pyrrol-4-yl}butanamide]	–	pIC50 [2]: 5.31
CC(C)(C(=O)N[C@@H]1CC[C@H]2CN(Cc3ccccc3)C[C@H]21)c1ccccc1 [Example 27, N-[(3aS,4R,6aR)-2-benzyloctahydrocyclopenta[c]pyrrol-4-yl]-2-methyl-2-phenylpropanamide]	–	pIC50 [2]: 5.01
CCC[C@H](NC)C(=O)N[C@H]1CC[C@@H]2CN(S(=O)(=O)c3ccc(F)cc3Cl)C[C@@H]21 [Example 539, N^1-{(3aR,4S,6aS)-2-[(2-chloro-4-fluorophenyl)sulfonyl]octahydrocyclopenta[c]pyrrol-4-yl}-N^2-methyl-L-norvalinamide]	5.36	–
CN(C(=O)OC(C)(C)C)[C@@H](CC(C)(C)C)C(=O)N[C@@H]1CC[C@H]2CN(Cc3ccccc3)C[C@H]21 [Example 248, tert-butyl(S)-1-((3aS,4R,6aR)-2-benzyloctahydrocyclopenta[c]pyrrol-4-ylamino)-4,4-dimethyl-1-oxopentan-2-yl(methyl)carbamate]	5.78	–
CC(C)(C)C[C@H](NC1CCCC1)C(=O)N[C@H]1CC[C@@H]2CN(C(=O)[C@H](CC(C)(C)C)NC3CCCC3)C[C@@H]21 [Example 508, N^2-cyclopentyl-N^1-[(3aR,4S,6aS)-2-(N-cyclopentyl-4-methyl-L-leucyl)octahydrocyclopenta[c]pyrrol-4-yl]-4-methyl-L-leucinamide]	5.07	–
O=C(N[C@H]1CC[C@H]2CN(Cc3cccc(C(F)(F)F)c3)C[C@H]21)C(c1ccc(F)cc1)c1ccc(F)cc1 (relative stereo) [Example 136, 2,2-bis(4-fluorophenyl)-N-{(3aS*,4S*,6aR*)-2-[3-(trifluoromethyl)benzyl]octahydrocyclopenta[c]pyrrol-4-yl}acetamide]	5.96	–
COc1cccc(CN2C[C@H]3CC[C@H](NC(=O)C(c4ccccc4)C(C)C)[C@H]3C2)c1 (stereo partly drawn) [Example 90, N-[(3aR,4S,6aS)-2-(3-methoxybenzyl)octahydrocyclopenta[c]pyrrol-4-yl]-3-methyl-2-phenylbutanamide]	–	inhibition at 10 µM: 83%
CCC[C@H](NC)C(=O)N[C@H]1CC[C@@H]2CN(S(=O)(=O)c3ccc(-c4ccccc4)cc3)C[C@@H]21 [Example 544, N^1-[(3aR,4S,6aS)-2-(1,1′-biphenyl-4-ylsulfonyl)octahydrocyclopenta[c]pyrrol-4-yl]-N^2-methyl-L-norvalinamide]	5.67	–
Cc1cccc(CN2C[C@@H]3CC[C@H](NC(=O)C(C4CCCCC4)C4CCCCC4)[C@@H]3C2)c1 [Example 61, 2,2-dicyclohexyl-N-[(3aS,4S,6aR)-2-(3-methylbenzyl)octahydrocyclopenta[c]pyrrol-4-yl]acetamide]	5.82	–
CN[C@@H](CC(C)(C)C)C(=O)N1C[C@H]2CC[C@H](NC(=O)C(c3ccc(F)cc3)c3ccc(F)cc3)[C@H]2C1 [Example 461, N-[(3aR,4S,6aS)-2-(N,4-dimethyl-L-leucyl)octahydrocyclopenta[e]pyrrol-4-yl]-2,2-bis(4-fluorophenyl)acetamide]	5.73	–
CCC(CC)C(C(=O)N[C@H]1CC[C@@H]2CN(Cc3ccccc3)C[C@@H]21)c1ccccc1 (stereo partly drawn) [Example 44, N-[(3aR,4S,6aS)-2-benzyloctahydrocyclopenta[c]pyrrol-4-yl]-3-ethyl-2-phenylpentanamide]	–	pIC50 [2]: 5.77
CC[C@H](C(=O)N[C@@H]1CC[C@H]2CN([C@@H](C)c3ccccc3)C[C@H]21)c1ccccc1 [Example 213, (2S)-2-phenyl-N-{(3aS,4R,6aR)-2-[(1S)-1-phenylethyl]octahydrocyclopenta[c]pyrrol-4-yl}butanamide]	–	inhibition at 10 µM: 60%
CC(C)C[C@H](NCC(C)(C)C)C(=O)N[C@@H]1CC[C@H]2CN(Cc3ccccc3)C[C@H]21 [Example 245, N^1-[(3aS,4R,6aR)-2-benzyloctahydrocyclopenta[c]pyrrol-4-yl]-N^2-neopentyl-L-leucinamide]	5.09	–
